± gives the expanded uncertainty stated by the source.
Conditions: 283.14 K, Liquid, Vibrating tube method

CCCCCCC(=O)OCC(COC(=O)CCCCCC)(COC(=O)CCCCCC)COC(=O)CCCCCC [pentaerythritol tetraheptanoate]
Conditions | mass density [kg/m3]
19935 kPa | 997 ± 1.2
19962 kPa | 996.9 ± 1.2
19984 kPa | 996.9 ± 1.2
20007 kPa | 996.9 ± 1.2
20034 kPa | 997 ± 1.2
20057 kPa | 997 ± 1.2
20081 kPa | 997 ± 1.2
20105 kPa | 997 ± 1.2
20133 kPa | 997 ± 1.2
20156 kPa | 997 ± 1.2
20179 kPa | 997.1 ± 1.2
20202 kPa | 997 ± 1.2
20230 kPa | 997 ± 1.2
20253 kPa | 997.1 ± 1.2
20282 kPa | 997.1 ± 1.2
20305 kPa | 997 ± 1.2
20328 kPa | 997.1 ± 1.2
20356 kPa | 997.1 ± 1.2
20380 kPa | 997.1 ± 1.2
20404 kPa | 997.2 ± 1.2
20428 kPa | 997.2 ± 1.2
20456 kPa | 997.2 ± 1.2
20480 kPa | 997.2 ± 1.2
20504 kPa | 997.2 ± 1.2
20533 kPa | 997.2 ± 1.2
20557 kPa | 997.2 ± 1.2
20586 kPa | 997.3 ± 1.2
20610 kPa | 997.3 ± 1.2
20634 kPa | 997.3 ± 1.2
20663 kPa | 997.3 ± 1.2
20688 kPa | 997.3 ± 1.2
20713 kPa | 997.3 ± 1.2
20742 kPa | 997.2 ± 1.2
20768 kPa | 997.5 ± 1.2
20792 kPa | 997.5 ± 1.2
20822 kPa | 997.5 ± 1.2
20846 kPa | 997.4 ± 1.2
20871 kPa | 997.4 ± 1.2
20896 kPa | 997.4 ± 1.2
20926 kPa | 997.4 ± 1.2
20951 kPa | 997.4 ± 1.2
20976 kPa | 997.4 ± 1.2
21007 kPa | 997.6 ± 1.2
21032 kPa | 997.5 ± 1.2
21062 kPa | 997.5 ± 1.2
21088 kPa | 997.5 ± 1.2
21114 kPa | 997.6 ± 1.2
21140 kPa | 997.6 ± 1.2
21171 kPa | 997.6 ± 1.2
21196 kPa | 997.4 ± 1.2
21222 kPa | 997.6 ± 1.2
21254 kPa | 997.6 ± 1.2
21279 kPa | 997.6 ± 1.2
21310 kPa | 997.7 ± 1.2
21336 kPa | 997.5 ± 1.2
21362 kPa | 997.7 ± 1.2
21393 kPa | 997.6 ± 1.2
21419 kPa | 997.7 ± 1.2
21446 kPa | 997.7 ± 1.2
21473 kPa | 997.7 ± 1.2
21505 kPa | 997.7 ± 1.2
21531 kPa | 997.7 ± 1.2
21558 kPa | 997.6 ± 1.2
21585 kPa | 997.8 ± 1.2
21617 kPa | 997.6 ± 1.2
21644 kPa | 997.8 ± 1.2
21671 kPa | 997.9 ± 1.2
21703 kPa | 997.8 ± 1.2
21730 kPa | 997.9 ± 1.2
21758 kPa | 997.8 ± 1.2
21790 kPa | 997.9 ± 1.2
21818 kPa | 997.9 ± 1.2
21846 kPa | 997.9 ± 1.2
21873 kPa | 997.7 ± 1.2
21906 kPa | 998 ± 1.2
21933 kPa | 997.9 ± 1.2
21961 kPa | 998 ± 1.2
21994 kPa | 997.9 ± 1.2
22022 kPa | 997.9 ± 1.2
22055 kPa | 998 ± 1.2
22083 kPa | 998 ± 1.2
22111 kPa | 997.9 ± 1.2
22139 kPa | 998.1 ± 1.2
22174 kPa | 998.1 ± 1.2
22199 kPa | 998 ± 1.2
22233 kPa | 998.1 ± 1.2
22261 kPa | 998.2 ± 1.2
22294 kPa | 998.1 ± 1.2
22323 kPa | 998.1 ± 1.2
22352 kPa | 998.2 ± 1.2
22381 kPa | 998.2 ± 1.2
22416 kPa | 998.2 ± 1.2
22444 kPa | 998.2 ± 1.2
22474 kPa | 998.1 ± 1.2
22509 kPa | 998.2 ± 1.2
22538 kPa | 998.2 ± 1.2
22569 kPa | 998.2 ± 1.2
22599 kPa | 998.2 ± 1.2
22628 kPa | 998.3 ± 1.2
22664 kPa | 998.4 ± 1.2
22694 kPa | 998.3 ± 1.2
22724 kPa | 998.3 ± 1.2
22760 kPa | 998.4 ± 1.2
22789 kPa | 998.4 ± 1.2
22819 kPa | 998.3 ± 1.2
22855 kPa | 998.4 ± 1.2
22886 kPa | 998.5 ± 1.2
22915 kPa | 998.4 ± 1.2
22952 kPa | 998.5 ± 1.2
22982 kPa | 998.4 ± 1.2
23012 kPa | 998.5 ± 1.2
23049 kPa | 998.6 ± 1.2

— the NIST ThermoML archive (doi:10.1021/je060271a)
